Like-named read-outs stand apart in the source and are kept apart here.
Tests used:
[1] = Standard murine pharmacokinetic model (plasma and brain AUC); assay type: in vivo; conditions: CL57 BL/6 mice, single IV injection 10 mg/kg, brain homogenate
Experimental: Several compounds disclosed herein were evaluated in a standard murine pharmacokinetic model. […] Three mice in each group were used for blood and brain collection at each time point. […] The brain of each animal was collected after the final blood collection. The whole tissue was harvested, excised and rinsed by saline, dried by filter paper, and then placed into one tube per tissue per animal. All samples were stored at −20° C. until bioanalysis. Compound concentrations in plasma and brain homogenate were determined using a high performance liquid chromatography/mass spectrometry (HPLC/MS/MS) method (Agilent 1100 series HPLC, AB Inc. API4000 triple-quadrupole with an ESI interface and Analyst 1.4 software). Results in the form of area under the time-versus-concentration curve (AUC) are given below in Table 10.

MLK3 = MLK3 (Homo sapiens (Human), UniProt Q16584); assay: Radiometric filter plate MLK3 assay; assay type: biochemical; conditions: read-out: MK3 IC50
Experimental: After a twenty minute incubation, the reactions were washed through filter plates and read on a scintillation counter. Results are shown in Table 9 below, in which +++ indicates ≤0.1 μM, ++ indicates >0.1 μM and ≤1 μM, and + indicates >1 μM.

[2] = 2 μM cold ATP (Km), 1 μM inactive MKK7b, twenty minute incubation

Chain of MLK3 (Q16584 whole entry): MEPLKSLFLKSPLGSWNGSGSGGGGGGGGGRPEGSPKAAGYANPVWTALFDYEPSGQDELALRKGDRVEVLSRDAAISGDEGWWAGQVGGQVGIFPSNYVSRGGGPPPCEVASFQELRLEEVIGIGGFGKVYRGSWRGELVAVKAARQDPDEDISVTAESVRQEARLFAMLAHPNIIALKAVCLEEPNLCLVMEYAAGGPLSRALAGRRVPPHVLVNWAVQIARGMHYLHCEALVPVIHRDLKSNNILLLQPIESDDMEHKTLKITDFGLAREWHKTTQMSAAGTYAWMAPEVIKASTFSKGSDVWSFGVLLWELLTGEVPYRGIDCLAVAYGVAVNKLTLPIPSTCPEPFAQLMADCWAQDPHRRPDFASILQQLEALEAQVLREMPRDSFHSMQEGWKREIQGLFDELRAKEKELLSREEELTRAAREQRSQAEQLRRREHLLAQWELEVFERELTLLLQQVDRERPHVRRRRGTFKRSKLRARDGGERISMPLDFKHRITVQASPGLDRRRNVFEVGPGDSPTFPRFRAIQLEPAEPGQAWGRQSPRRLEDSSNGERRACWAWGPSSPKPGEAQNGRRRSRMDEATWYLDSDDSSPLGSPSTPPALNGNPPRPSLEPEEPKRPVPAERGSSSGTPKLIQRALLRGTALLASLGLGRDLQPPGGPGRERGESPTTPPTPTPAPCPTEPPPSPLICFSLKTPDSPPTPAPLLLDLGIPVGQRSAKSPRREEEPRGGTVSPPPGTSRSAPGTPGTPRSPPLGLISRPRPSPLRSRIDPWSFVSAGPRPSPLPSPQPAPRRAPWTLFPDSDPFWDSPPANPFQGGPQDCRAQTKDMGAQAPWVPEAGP

Row | AUC Brain [1] | IC50 (MLK3; [2]) [nM] | IC50 (MLK3) [nM] | SMILES
1 |  | < 100 |  | CCS(=O)(=O)N1CCN(Cc2ccc(-c3cnc4[nH]cc(-c5ccc6[nH]ccc6c5)c4c3)cc2)CC1 [Example 199]
2 |  | < 100 |  | CS(=O)(=O)N1CCN(Cc2ccc(-c3cnc4[nH]cc(-c5ccc6[nH]ccc6c5)c4c3)cc2)CC1 [Example 200]
3 |  | < 100 |  | O=C(CCO)N1CCN(Cc2ccc(-c3cnc4[nH]cc(-c5ccc6[nH]ccc6c5)c4c3)cc2)CC1 [Example 201]
4 |  | < 100 |  | COCCC(=O)N1CCN(Cc2ccc(-c3cnc4[nH]cc(-c5ccc6[nH]ccc6c5)c4c3)cc2)CC1 [Example 202]
5 |  | < 100 |  | O=C(CC1CC1)N1CCN(Cc2ccc(-c3cnc4[nH]cc(-c5ccc6[nH]ccc6c5)c4c3)cc2)CC1 [Example 203]
6 |  | < 100 |  | CC(C)CC(=O)N1CCN(Cc2ccc(-c3cnc4[nH]cc(-c5ccc6[nH]ccc6c5)c4c3)cc2)CC1 [Example 204]
7 |  | < 100 |  | O=C1CCC(C(=O)N2CCN(Cc3ccc(-c4cnc5[nH]cc(-c6ccc7[nH]ccc7c6)c5c4)cc3)CC2)N1 (stereo not drawn) [Example 205]
8 |  |  | 100 to 1000 | FC(F)(F)CN1CCN(Cc2ccc(-c3cnc4[nH]cc(-c5ccc6[nH]ccc6c5)c4c3)cc2)CC1 [Example 207, 3-(1H-indol-5-yl)-5-(4-((4-(2,2,2-trifluoroethyl)piperazin-1-yl)methyl)phenyl)-1H-pyrrolo[2,3-b]pyridine]
9 |  |  | 100 to 1000 | CN1CCN(Cc2ccc(-c3cnc4[nH]c(=O)n(-c5ccc6[nH]ccc6c5)c4n3)cc2)CC1 [Example 212, 1-(1H-Indol-5-yl)-6-[4-(4-methyl-piperazin-1-ylmethyl)-phenyl]-1,3-dihydro-imidazo[4,5-b]pyrazin-2-one]

Second part, the compound before the results:

Row | SMILES | AUC Brain [1] | IC50 (MLK3; [2]) [nM] | IC50 (MLK3) [nM]
10 | COc1cc(-c2cnc3[nH]cc(-c4ccc5[nH]ccc5c4)c3c2)cc(OC)c1OC [Example 1, 3-(1H-indol-5-yl)-5-(3,4,5-trimethoxyphenyl)-1H-pyrrolo[2,3-b]pyridine] | + (+ indicates ≥500) |  | 
11 | Nc1ccc(-c2cnc3[nH]cc(-c4ccc5[nH]ccc5c4)c3c2)cn1 [Example 4, 5-(3-(1H-indol-5-yl)-1H-pyrrolo[2,3-b]pyridin-5-yl)pyridin-2-amine] | − (− indicates <500) | < 100 | 
12 | Nc1ncc(-c2cnc3[nH]cc(-c4ccc5[nH]ccc5c4)c3c2)cn1 [Example 9, 5-(3-(1H-indol-5-yl)-1H-pyrrolo[2,3-b]pyridin-5-yl)pyrimidin-2-amine] | + (+ indicates ≥500) | < 100 | 
13 | COc1cc(-c2cnc3[nH]cc(-c4cnc(N)nc4)c3c2)cc(OC)c1OC [Example 17, 5-(5-(3,4,5-trimethoxyphenyl)-1H-pyrrolo[2,3-b]pyridin-3-yl)pyrimidin-2-amine] | − (− indicates <500) | < 100 | 
14 | COc1cc(-c2cnc3[nH]cc(-c4ccc(N)nc4)c3c2)cc(OC)c1OC [Example 18, 5-(5-(3,4,5-trimethoxyphenyl)-1H-pyrrolo[2,3-b]pyridin-3-yl)pyridin-2-amine] | − (− indicates <500) | < 100 | 
15 | CN1CCN(Cc2ccc(-c3cnc4[nH]cc(-c5ccc6[nH]ccc6c5)c4c3)cc2)CC1 [Example 32, 3-(1H-indol-5-yl)-5-(4-((4-methylpiperazin-1-yl)methyl)phenyl)-1H-pyrrolo[2,3-b]pyridine] | + (+ indicates ≥500) |  | 
16 | c1cc2cc(-c3c[nH]c4ncc(-c5ccc(CN6CCOCC6)cc5)cc34)ccc2[nH]1 [Example 184, 4-(4-(3-(1H-indol-5-yl)-1H-pyrrolo[2,3-b]pyridin-5-yl)benzyl)morpholine] |  | < 100 | 
17 | FC1(F)CCN(Cc2ccc(-c3cnc4[nH]cc(-c5ccc6[nH]ccc6c5)c4c3)cc2)CC1 [Example 185, 5-(4-((4,4-difluoropiperidin-1-yl)methyl)phenyl)-3-(1H-indol-5-yl)-1H-pyrrolo[2,3-b]pyridine] |  |  | 100 to 1000
18 | CC(=O)N1CCN(Cc2ccc(-c3cnc4[nH]cc(-c5ccc6[nH]ccc6c5)c4c3)cc2)CC1C (stereo not drawn) [Example 188, 1-(4-(4-(3-(1H-indol-5-yl)-1H-pyrrolo[2,3-b]pyridin-5-yl)benzyl)-2-methylpiperazin-1-yl)ethanone] |  | < 100 | 
19 | CC1CN(Cc2ccc(-c3cnc4[nH]cc(-c5ccc6[nH]ccc6c5)c4c3)cc2)CCN1C (stereo not drawn) [Example 189, 5-(4-((3,4-dimethylpiperazin-1-yl)methyl)phenyl)-3-(1H-indol-5-yl)-1H-pyrrolo[2,3-b]pyridine] |  | < 100 | 
20 | CC(C)(C)C(=O)N1CCN(Cc2ccc(-c3cnc4[nH]cc(-c5ccc6[nH]ccc6c5)c4c3)cc2)CC1 [Example 191] |  |  | 100 to 1000
21 | CC(C)(C)CC(=O)N1CCN(Cc2ccc(-c3cnc4[nH]cc(-c5ccc6[nH]ccc6c5)c4c3)cc2)CC1 [Example 192] |  | < 100 | 
22 | CCOC(=O)N1CCN(Cc2ccc(-c3cnc4[nH]cc(-c5ccc6[nH]ccc6c5)c4c3)cc2)CC1 [Example 193] |  | < 100 | 
23 | COC(=O)N1CCN(Cc2ccc(-c3cnc4[nH]cc(-c5ccc6[nH]ccc6c5)c4c3)cc2)CC1 [Example 194] |  | < 100 | 
24 | CC(C)C(=O)N1CCN(Cc2ccc(-c3cnc4[nH]cc(-c5ccc6[nH]ccc6c5)c4c3)cc2)CC1 [Example 196] |  | < 100 | 
25 | CCC(=O)N1CCN(Cc2ccc(-c3cnc4[nH]cc(-c5ccc6[nH]ccc6c5)c4c3)cc2)CC1 [Example 197] |  | < 100 | 
26 | COCC(=O)N1CCN(Cc2ccc(-c3cnc4[nH]cc(-c5ccc6[nH]ccc6c5)c4c3)cc2)CC1 [Example 198] |  | < 100 | 
